Our source for the RP-LC retention time values is the METLIN SMRT retention time set (Domingo-Almenara et al. 2019).

SMILES strings stand for the structures.

The nature of the series: gradient 5% acetonitrile 3 min, to 50% in 2 min, to 85% in 15 min, held 3 min, 100 µL/min. The conditions noted are these: column: Zorbax Extend-C18 2.1 x 50 mm; eluents: water / acetonitrile, 0.1% formic acid. Put shortly: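 Retention time was recorded from adduct peaks, which were picked computationally and each inspected manually. Pure standards ran in mixtures of ~100 molecules on HPLC coupled to a quadrupole time-of-flight mass spectrometer, in positive and negative ionization mode, through a Zorbax Extend-C18 column (2.1 × 50 mm, 1.8 μm) at 100 μL/min. Eluents were water and acetonitrile, each with 0.1% formic acid.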
In the case of `CCOc1ccc(NC(=O)Cn2cccc2-c2nnc(C3CC3)o2)cc1`, the RP-LC retention time turned out to be 847 s.
In the case of `CCS(=O)(=O)Nc1ccc(C2(C(=O)NCc3ccc(C)cc3)CCC2)cc1` it was 863 s.
For the molecule `CCCn1c(=O)sc2cc(S(=O)(=O)N3CCC(C(=O)Nc4cc(C)cc(C)c4)CC3)ccc21`, the RP-LC retention time stood at 1060 s.
In the case of `CCNS(=O)(=O)c1cccnc1Nc1cccc(Cl)c1` it was 1030 s.
In the case of `CC(Oc1ccc2c(c1)OCO2)C(=O)NCCn1nc(-c2cccs2)ccc1=O` (stereo unspecified) it was 712 s; in that of `O=C(c1cc(S(=O)(=O)N2CCCC(C(=O)N3CCCCCC3)C2)c[nH]1)N1CCCC1` (stereo unspecified), 729 s; in that of `O=C(Nc1ccccc1NC(=O)c1ccccc1C(F)(F)F)c1cccs1`, 835 s.
In the case of `O=C(Cn1nc2n(c1=O)CCCCC2)Nc1ccc2c(c1)OCO2` it was 655 s.
In the case of `CN1CCN(C(=O)C2CCN(S(=O)(=O)c3cc(C(=O)N4CCCCCC4)cs3)CC2)CC1`, the RP-LC retention time stood at 619 s.
As for `O=C(NC1CCCC1)C1CCCN(C(=O)c2ccc(F)c(F)c2)C1` (stereo unspecified), the figure is 763 s; as for `O=C(Cc1ccc(F)cc1)Nc1ccc(-c2cn3c(C(=O)N4CCCC4)csc3n2)cc1`, 783 s; as for `O=C(NCc1ccc2c(c1)OCO2)C1CCN(C(=O)c2ccc(-c3noc(C4CC4)n3)cc2)CC1`, 796 s.
In the case of `O=C(CCc1c(-c2ccc(Br)cc2)nc2ccccn12)NCc1ccc(F)cc1` it was 701 s; in that of `Cc1ccc2nc(C3CN(C(=O)c4c(-c5ccccc5Cl)noc4C)C3)[nH]c2c1`, 598 s.
In the case of `CCn1cc(S(=O)(=O)N2CCC(c3noc(-c4cccnc4)n3)C2)cn1` (stereo unspecified) it was 710 s; in that of `CCOc1cc(=O)n2c(c1C(=O)NCCCN1CCCCC1)CCCCC2`, 568 s.
`CCc1nc2ccc(-c3noc(-c4ccsc4)n3)cc2n1CC`: the RP-LC retention time came to 698 s.
In the case of `CCN1c2cc(F)ccc2C(=O)NC12CCN(C(=O)c1cccc(C)c1)CC2` it was 824 s.
As for `CCN1C(=O)Cc2c(C)nc(-c3ccc(OC)cc3)nc21`, the figure is 880 s; as for `Cc1[nH]c(C(=O)N2CCC(CC(=O)N3CCN(c4ccccc4)CC3)CC2)c(C)c1C(=O)OC(C)C`, 939 s.
With `O=C(NCC1CN(CC2CC2)CC12CCCCC2)Nc1cccc(Cl)c1` (stereo unspecified), the RP-LC retention time was 741 s.
In the case of `O=C(Nc1cnc(N2CCCC2)nc1)c1ccc(F)c(Cl)c1` it was 804 s.
As for `CNC(=O)c1ccccc1C(=O)NCCc1nc(-c2cnccn2)no1`, the figure is 555 s; as for `C#CCSc1nc2sc(C)c(C)c2c(=O)n1C`, 983 s.
Molecule `COC(=O)Nc1ccc(CC(=O)NC2CC2)cc1` showed an RP-LC retention time of 592 s.
In the case of `Cc1cc(N2CCN(S(=O)(=O)c3cc(F)ccc3F)CC2)nc(N2CCCCC2)n1` it was 769 s; in that of `O=C(NC1CCN(C(=O)N2C[C@H]3C[C@H](C2)[C@H]2CCCC(=O)N2C3)CC1)c1ccc2ccccc2n1`, 714 s; in that of `CCOC(=O)c1[nH]c(C)c(CCC(=O)N2CCC(C(=O)NCCCOC(C)C)CC2)c1C`, 706 s.
As for `COC(=O)c1cc(OCC(=O)Nc2ccccc2F)c2ccccc2n1`, the figure is 799 s.
In the case of `Cc1ccc(C)c(-c2coc(-c3ccc(NC(=O)NCc4ccc(F)cc4)cc3)n2)c1` it was 1190 s.
In turn, `CCOc1ccc(-c2cc3c(=O)n(Cc4nc(-c5ccc(C)cc5)no4)ccn3n2)cc1` had an RP-LC retention time of 1160 s.
In the case of `CCOc1ccc(NC(=O)Nc2nccn(-c3ccccc3)c2=O)cc1` it was 913 s; in that of `O=C(CCn1cnc2c(-c3ccccc3)noc2c1=O)NCCCN1CCc2ccccc2C1`, 679 s; in that of `O=C(c1ccncc1)N1CCc2c([nH]c3ccccc23)C1c1ccccc1` (stereo unspecified), 862 s.
As to `CCC(=O)Nc1ccc2c(c1)nc(CN1CCOCC1)n2C(C)C`, the RP-LC retention time came to 587 s.
In the case of `COc1ccc(-n2nc(C(=O)Nc3ccc4c(c3)OCCO4)c(=O)cc2OC)cc1` it was 758 s; in that of `O=C(c1cn[nH]c1)N1CCCC1Cc1noc(C2CCCC2)n1` (stereo unspecified), 692 s; in that of `CC1(C(=O)Oc2ccc(Cl)cc2)Cc2ccccc2C(=O)O1` (stereo unspecified), 942 s.
Take `Cc1nc(-c2csc(S(=O)(=O)N3CCC(C(=O)NC4CCCCC4)CC3)c2)no1`: the RP-LC retention time was found to be 879 s.
Take `COc1cc2c(cc1OC)C(C(=O)Nc1ccc3c(c1)OCO3)C(c1cccs1)N(C)C2=O` (stereo unspecified): the RP-LC retention time was 790 s.
As for `CCS(=O)(=O)N1CCc2nc(-c3ccc(OC)cc3)ncc2C1`, the figure is 805 s; as for `COCc1cc(=O)n(CC(=O)Nc2cccc(F)c2)c(N)n1`, 618 s; as for `COc1cccc(CNC(=O)C2CCCN(c3cc(=O)n(C)c(=O)n3C)C2)c1` (stereo unspecified), 670 s.
In turn, `COc1ccccc1-c1nc(Cc2noc(-c3ccc(F)cc3)n2)c(C)o1` registered an RP-LC retention time of 1040 s.
As for `CC(C)n1cnnc1-c1nn(C)c2c1CN(C(=O)CC1CCCC1)CC2`, the figure is 732 s; as for `O=C(c1ccnnc1)N1C[C@@H](COCC2CC2)[C@H](c2ccncc2)C1`, 570 s.
Molecule `Cc1nc(Nc2ccc(Cl)cn2)sc1C(=O)NCCN1CCCCC1` came in with an RP-LC retention time of 637 s.
As to `CCOc1ccc(-c2cc3n(n2)CCCN(C(=O)c2cc(C)n(C)n2)C3)cc1`, the RP-LC retention time was 698 s.
Take `COc1cccc(Cn2nnc(C(=O)O)c2-c2cccc(OC)c2)c1`: the RP-LC retention time came to 782 s.
In the case of `Cc1scc2nc(C(=O)NCc3ccc(F)cc3)nc(N(C)C)c12` it was 780 s; in that of `CCc1nc(-c2csc(S(=O)(=O)N3CCCC(C(=O)N(C)c4ccc(C)cc4)C3)c2)no1` (stereo unspecified), 1060 s; in that of `COCc1nncn1C1CCN(S(=O)(=O)c2ccc(Cl)cc2C)CC1`, 770 s.
As for `Cc1cc(N2CCCCC2C)n2nc(-c3ccccc3C)nc2n1` (stereo unspecified), the figure is 991 s; as for `COCCNC(=O)c1c(C)sc2ccn(Cc3ccc(F)cc3)c(=O)c12`, 749 s; as for `Cc1ccn(C(=O)c2ccc(NC(=O)CC(C)C)cc2)n1`, 804 s.
On to `O=C(CCn1c(=O)c2cccn2c2cccnc21)N1CCN(c2ccccn2)CC1`, for which the RP-LC retention time is 584 s.
In the case of `Cc1csc(-c2ccc(N3CCN(C(=O)c4cc5ccccc5[nH]4)CC3)nc2)n1` it was 852 s.
As for `CCCOc1ccccc1C(=O)Nc1nonc1-c1ccccc1`, the figure is 991 s; as for `COCC(=O)Nc1nnc(SCc2nnc(-c3ccc4c(c3)OCO4)o2)s1`, 717 s; as for `Cc1nn2c(CNS(=O)(=O)c3ccccc3C)c(-c3ccccc3)nc2s1`, 827 s.
Consider `CCOC(=O)c1sc(NC(=O)COc2ccc(Cl)cc2)nc1C`, for which the RP-LC retention time came out at 970 s.
On to `O=C1CC(c2noc(-c3ccc(F)c(Cl)c3)n2)CN1c1ccc(F)cc1` (stereo unspecified), for which the RP-LC retention time was determined as 1070 s.
In the case of `COc1cccc(C(=O)NCc2nn(C)c3ccccc23)c1` it was 779 s; in that of `COc1cc(C(=O)NCC(c2cccs2)N2CCOCC2)c([N+](=O)[O-])cc1OC` (stereo unspecified), 565 s.
In the case of `Cc1ccsc1C(=O)N1CCC(N2C(=O)C(OCC3CC3)C23CCCCC3)CC1` (stereo unspecified) it was 1020 s.
In the case of `COc1ccc(N2CCN(C(=O)c3c(C)oc4nc(C)nc(N5CCCC5)c34)CC2)cc1` it was 694 s.
The molecule `CCc1nc(-c2c(C)cc(C)nc2NC(=O)c2ccccc2Br)no1` had an RP-LC retention time of 828 s.
As for `CC(NC(=O)CC1CCN(S(=O)(=O)c2ccccc2)CC1)c1ccc2c(c1)OCCO2` (stereo unspecified), the figure is 846 s.
`CCCCNC(=O)C(=O)NCC1OCCc2ccccc21` (stereo unspecified): the RP-LC retention time was 879 s.
As for `CCOc1ccc(NC(=O)N2CCC[C@@H]2C(=O)NCc2csc(-c3ccccc3)n2)cc1`, the figure is 808 s; as for `CCn1nnc2ccc(-c3noc(C(C)NC(=O)c4ccccc4)n3)cc21` (stereo unspecified), 689 s.
With `O=C(Cc1c[nH]c2ccccc12)N1CCN(C(=O)c2cc(-c3ccncc3)n[nH]2)CC1`, the RP-LC retention time came to 578 s.
As for `COCc1nn(CC2CC2)c2c1CN(C(=O)Cc1ccccc1)CC2`, the figure is 732 s.
In the case of `COC(=O)c1ccccc1NC(=O)CSc1nc2ccccc2s1` it was 1030 s; in that of `Cc1cc2c(cc1C(=O)NCc1ccc3c(c1)CCCO3)OCCCO2`, 872 s; in that of `CCOCC(=O)N1CC(F)(F)C[C@H]1c1nc(C2CC2)no1`, 746 s.
As for `COc1ccccc1CNC(=O)c1c(O)c2cccnc2[nH]c1=O`, the figure is 933 s; as for `Cc1cc(C)n(-c2cc(N3CCCC3)ncn2)n1`, 764 s; as for `Cc1cc(NC(=O)CC(=O)Nc2ccc3nc4n(c(=O)c3c2)CCCCC4)no1`, 636 s.
For `Cc1cc(C)nc(Nc2nc(CC(=O)NCCc3ccc(S(N)(=O)=O)cc3)cs2)n1`, the RP-LC retention time was found to be 604 s.
As for `CC(Oc1ccccc1)C(=O)N1CCN(c2nc(CN3CCCCC3)cs2)CC1` (stereo unspecified), the figure is 650 s.
